Reference: the supplement of paper PMC11208160

Test: recombinant barcode read abundance after kanamycin selection (control-corrected) (log10(CPM+1)); higher = more efficient recombination; sequences stand for … in AGTGCAGAGAAAATCGGCCAGTTTTCTCTGCCTGCAGTCCGCATGCCGT…AGATTTATGCAGCGGACTGCCTTTCTCCCAAAGTGATAAACCGGACAGTATCATGGACCGGTTTTCCCGGTAATCCGTATTTGCAAGGTTGGTTTCACT; site = the 11-nt target
How it was run: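 For this pooled screen, each oligo contained a promoter, a target, a barcode and the J23119-driven first 104 bases of the bridge RNA. Gibson cloning placed it into a vector supplying the remaining 73 bp and a T7-inducible recombinase, and the pool was co-electroporated into E. coli with a donor plasmid. Recombination efficiency is derived from barcode counts per million at recombinant junctions after averaging and control correction, and is expressed on a log scale as log10(CPM+1), with selection on chloramphenicol/ampicillin/kanamycin plus 0.1 mM IPTG against a chloramphenicol/ampicillin LB agar control.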
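Note: IS621 recombinase and bridge RNA in Escherichia coli cells.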

| Sequence | recombinant barcode read abundance (log10) |
| --- | --- |
| GCTGGTCCTTGGGTTCTAACCTGTTGCCT (site GCCGGTCCTAG) | 0.431 |
| GCTGGTCCTTGGGTTCTAACCTGTTGCCT (site GCGGGTCCTAG) | 0.205 |
| GCTGGTCCTTGGGTTCTAACCTGTTGCCT (site GCTGGTCCTAG) | 1.75 |
| GCTTAAACTTGGGTTCTAACCTGTTGCCT (site ATGGCCTCTTA) | 0.0724 |
| GCTTAAACTTGGGTTCTAACCTGTTGCCT (site GCTTAAACTAG) | 1.04 |
| GCTTCCACTTGGGTTCTAACCTGTTGCCT (site ACTTCCACTAG) | 0.074 |
| GCTTCCACTTGGGTTCTAACCTGTTGCCT (site CCTTCCACTAG) | 0.24 |
| GCTTCCACTTGGGTTCTAACCTGTTGCCT (site GCTTCCACTAG) | 0.381 |
| GCTTCCACTTGGGTTCTAACCTGTTGCCT (site TCTTCCACTAG) | 0.196 |
| GCTTCGTCTTGGGTTCTAACCTGTTGCCT (site GCATCGTCTAG) | 0.427 |
| GCTTCGTCTTGGGTTCTAACCTGTTGCCT (site GCCTCGTCTAG) | 0.129 |
| GCTTCGTCTTGGGTTCTAACCTGTTGCCT (site GCGTCGTCTAG) | 0.0292 |
| GCTTCGTCTTGGGTTCTAACCTGTTGCCT (site GCTTCGTCTAG) | 0.393 |
| GGAAAAGCTTGGGTTCTAACCTGTTGCTT (site GGAAAAGCTAA) | 0.268 |
| GGAAAAGCTTGGGTTCTAACCTGTTGCTT (site TCTTCGACTCT) | 0.153 |
| GGAACGACTTGGGTTCTAACCTGTTGCGT (site CTCCGAGCTGT) | 0.0623 |
| GGAACGACTTGGGTTCTAACCTGTTGCGT (site GGAACGACTAC) | 1.93 |
| GGACACTCTTGGGTTCTAACCTGTTGCCT (site GGACACTCTAG) | 2.75 |

| Sequence | recombinant barcode read abundance (log10) |
| --- | --- |
| GGACACTCTTGGGTTCTAACCTGTTGCCT (site GGACACTCTTA) | 1.09 |
| GGACATTCTTGGGTTCTAACCTGTTGCAT (site GGACATTCTAT) | 0.872 |
| GGACATTCTTGGGTTCTAACCTGTTGCAT (site GTCCATTCTAT) | 0.0875 |
| GGACCTACTTGGGTTCTAACCTGTTGCCA (site GAACCTACTTG) | 0.0276 |
| GGACCTACTTGGGTTCTAACCTGTTGCCA (site GGACCTACTTG) | 0.483 |
| GGACGCTCTTGGGTTCTAACCTGTTGCCT (site GGACGCTCTAG) | 1.83 |
| GGACGCTCTTGGGTTCTAACCTGTTGCCT (site GGTCGCTCTAG) | 0.113 |
| GGACGGCCTTGGGTTCTAACCTGTTGCGT (site CTACGGCCTAC) | 0.152 |
| GGACGGCCTTGGGTTCTAACCTGTTGCGT (site GGACGGCCTAC) | 2.53 |
| GGACGGGCTTGGGTTCTAACCTGTTGCAG (site GAACGGGCTCC) | 0.0984 |
| GGACGGGCTTGGGTTCTAACCTGTTGCAG (site GGACGGGCTCT) | 2.48 |
| GGAGACGCTTGGGTTCTAACCTGTTGCCT (site GGAGAAGCTAG) | 0.344 |
| GGAGACGCTTGGGTTCTAACCTGTTGCCT (site GGAGACGCTAG) | 1.32 |
| GGAGACGCTTGGGTTCTAACCTGTTGCCT (site GGAGAGGCTAG) | 0.676 |
| GGAGACGCTTGGGTTCTAACCTGTTGCCT (site GGAGATGCTAG) | 0.235 |
| GGAGCACCTTGGGTTCTAACCTGTTGCCT (site GGAGCACCTAG) | 2.38 |
| GGAGCACCTTGGGTTCTAACCTGTTGCCT (site GGAGCAGCTAG) | 0.0718 |
| GGAGCGTCTTGGGTTCTAACCTGTTGCGT (site GGAGCGTCTAC) | 1.61 |
